Biological target: S-adenosylmethionine synthetase (MAT, cMAT) (Escherichia coli, UniProt P0A817)
Test: […]-methionine incorporation into AdoMet with purified enzyme
Assay type: biochemical

Sequence of S-adenosylmethionine synthetase (MAT, cMAT) (P0A817 2-384): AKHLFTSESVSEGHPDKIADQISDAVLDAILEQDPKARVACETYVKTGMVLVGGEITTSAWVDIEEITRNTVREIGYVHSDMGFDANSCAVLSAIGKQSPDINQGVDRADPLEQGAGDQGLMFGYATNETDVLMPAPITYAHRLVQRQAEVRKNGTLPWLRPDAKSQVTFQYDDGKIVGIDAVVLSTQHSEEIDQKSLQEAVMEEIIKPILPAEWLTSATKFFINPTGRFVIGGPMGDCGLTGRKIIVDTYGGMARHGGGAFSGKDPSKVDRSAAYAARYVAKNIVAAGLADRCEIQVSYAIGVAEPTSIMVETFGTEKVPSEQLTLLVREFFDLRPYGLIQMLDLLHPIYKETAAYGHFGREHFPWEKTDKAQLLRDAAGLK

CCOc1ccccc1NC(=O)NCC(=O)NNC(=O)Nc1cc([N+](=O)[O-])ccc1C [compound 1, 1-(3-(2-ethoxyphenyl)ureidoacetyl)-4-(2-methyl-5-nitrophenyl)semicarbazide]
Ki: 1.9 ± 0.8 nM

From article PMC2869451 (Journal of medicinal chemistry, 2009)
